Measured values reported in patent US11712457B2, “Syringa pubescens microphylla seed extract composition and its application in antibiotic-resistant infections” (SHAANXI UNIVERSITY OF SCIENCE AND TECHNOLOGY, priority 2020, dated 2023).

Assays:
Assay in all cases: Paper diffusion drug sensitivity test (zone of inhibition)
Assay type in all cases: cell-based
[1] = tested on: Staphylococcus aureus (SAU); settings: LB agar, 37° C., 24 h, control drugs 30 μg/tablet, extract 128 μg/tablet, ≥17 mm sensitive, 15-16 mm intermediate, ≤14 mm resistant
Protocol: (§1) The bacteriostatic activity test experiment was carried out on the Syringa pubescens microphylla extract of the present invention, and the bacteriostatic effect was determined by a paper diffusion drug sensitivity method.
(§2) Experimental strains: Staphylococcus aureus (SAU), multi-drug resistant Staphylococcus aureus 18-206, multi-drug resistant Pseudomonas aeruginosa 18-261. The experimental strains were provided by Huashan Hospital, Fudan University (Institute of Antibiotics, Fudan University).
(§3) Drug sensitive paper: The drug sensitive paper is a special drug sensitive paper with a diameter of 6.35 mm and a water absorption of 0.02 mL. The control drugs were cefazolin sodium (30 μg/tablet), vancomycin (30 μg/tablet) and gentamicin (30 μg/tablet); the test drug was the Syringa pubescens microphylla extract (128 μg/tablet).
(§4) The experimental strains were inoculated in a non-selective medium and incubated in air at 37 C for 24 hours. A single colony was selected and inoculated into a broth medium, and incubated at 35±2° C. for 6 hours. LA broth medium was used to correct the concentration of the bacterial solution to 1.5×10^8 CFU/mL to obtain a bacterial suspension.
(§5) Weighing LB dry powder, autoclaving at 103.4 Kpa, 121.3° C. for 15 min, then placing in a 40° C.-50° C. water bath. Sterile empty plates (with an inner diameter of 9 cm) were placed on a water platform of the ultra-clean table. LB solution was poured to the plates, with agar thickness of 3 mm-4 mm. After the plates were cooled at room temperature, they were stored in a refrigerator at 2° C. to 8° C. Bacteria liquid was spread evenly with a sterile cotton swab on the surface of the LB plate 3 times. The LB plate was dried at room temperature for 3 min to 5 min. An antibacterial drug paper sheet was placed in the plate using sterile tweezers. The plates were placed in a 37° C. incubator for 24 h. The diameter of inhibition zone was measured. 0.5% DMSO solution was used as the negative control. The diameter of inhibition zone was to measure the antibacterial activity. Inhibition zone≥17 mm, sensitive; inhibition zone=15 mm-16 mm, intermediate; inhibition zone≤14 mm, resistant.

[2] = tested on: multi-drug resistant Pseudomonas aeruginosa 18-261; settings: strain 18-261; LB agar, 37° C., 24 h; control drugs 30 μg/tablet, extract 128 μg/tablet; ≥17 mm sensitive, 15-16 mm intermediate, ≤14 mm resistant
Protocol: as §1, §2, §3, §4, §5

[3] = tested on: multi-drug resistant Staphylococcus aureus 18-171; settings: strain 18-171; LB agar, 37° C., 24 h; control drugs 30 μg/tablet, extract 128 μg/tablet; ≥17 mm sensitive, 15-16 mm intermediate, ≤14 mm resistant

Compound | Diameter of Inhibition Zone [1] [mm] | Diameter of Inhibition Zone [2] [mm] | Diameter of Inhibition Zone [3] [mm]
Cc1nnc(SCC2=C(C(=O)O)N3C(=O)[C@@H](NC(=O)Cn4cnnn4)[C@H]3SC2)s1 [cefazolin sodium] | 10 | 0 | 0
CN[C@H](CC(C)C)C(=O)N[C@H]1C(=O)N[C@@H](CC(N)=O)C(=O)N[C@H]2C(=O)N[C@H]3C(=O)N[C@H](C(=O)N[C@H](C(=O)O)c4cc(O)cc(O)c4-c4cc3ccc4O)[C@H](O)c3ccc(c(Cl)c3)Oc3cc2cc(c3O[C@@H]2O[C@H](CO)[C@@H](O)[C@H](O)[C@H]2O[C@H]2C[C@](C)(N)[C@H](O)[C@H](C)O2)Oc2ccc(cc2Cl)[C@H]1O [vancomycin] | 23 | – | 17
gentamicin | 18 | 17 | 16
